The values below come from patent US20230172940A1, “METHODS OF EXTENDING LIFESPAN BY ADMINISTERING FERROPTOSIS INHIBITORS” (COLLABORATIVE MEDICINAL DEVELOPMENT, LLC, priority 2020, published 2023).

SMILES strings stand for the structures.

One test has as its system RSL3. Kind of test: IC50 (RSL3), Table 1. In kind it is cell-based.
Details: not given
As to `CCCCCc1ccc(NC(C)CC)c(NC2CCCC2)n1` (centres unmarked) [Compound H-72, N^2-cyclopentyl-6-pentyl-N^3-sec-butyl-pyridine-2,3-diamine], the IC50 (commonly the concentration that gives 50% inhibition) turned out to be 6 nM.

For the compound `CCC(C)Nc1ccc(-c2ccncc2)nc1NC(C)(C)C` (centres unmarked) [Compound P-22], the IC50 was 1 nM.

Take `CCCCCc1nc(NC2CCCC2)c2c(n1)S(=O)(=O)CCN2` [Compound B-602, N-cyclopentyl-8,8-dioxo-2-pentyl-6,7-dihydro-5H-pyrimido[4,5-b][1,4]thiazin-4-amine]: the IC50 was not below 3000 nM.

In the case of `CC1(Nc2nc(-c3ccc(F)cc3)ccc2NC2CCC2)CCOC1` (centres unmarked) [Compound P-54, N^3-cyclobutyl-6-(4-fluorophenyl)-N^2-(3-methyltetrahydrofuran-3-yl)pyridine-2,3-diamine], 3 nM corresponded to half-maximal inhibition (IC50).

Turning to `CCCCC(=O)c1cc2c(c(-c3ccncc3)c1)NCCC2` [Compound Q-950, 1-[8-(4-pyridyI)-1,2,3,4-tetrahydroquinolin-6-yl]pentan-1-one], the IC50 was more than 3000 nM.

For the compound `CCC(C)Nc1ccc(-c2cccnc2)nc1NC1CCCC1` (centres unmarked) [Compound H-74, N^2-cyclopentyl-6-(3-pyridyl)-N^3-sec-butyl-pyridine-2,3-diamine], the IC50 turned out to be 5 nM.

In turn, `CC1(Nc2nc(-c3ccc(F)cc3)ccc2NC2CCOCC2)CCOC1` (centres unmarked) [Compound N-53, 6-(4-fluorophenyl)-N^2-(3-methyltetrahydrofuran-3-yl)-N^3-tetrahydropyran-4-yl-pyridine-2,3-diamine] returned an IC50 of 1 nM. This IC50 is about 5-fold lower than that of the compound before.

`CCC(C)Nc1ccc(-c2ccc(C)cc2)nc1NC1CCCC1` (centres unmarked) [Compound H-61, N^2-cyclopentyl-6-(p-tolyl)-N^3-sec-butyl-pyridine-2,3-diamine]: inhibition was half-maximal at 7 nM (IC50).

`CCC/C=C/c1nc(NC2CCOC2)c2c(n1)OCC(=O)N2` (centres unmarked) [Compound B-603, 4-[(oxolan-3-yl)amino]-2-[(1E)-pent-1-en-1-yl]-5H,6H,7H-pyrimido[4,5-b][1,4]oxazin-6-one] showed an IC50 of more than 3000 nM.

In turn, `CCCCC(=O)c1cc(F)c2c(c1)CCCN2` [Compound B-132] came in with an IC50 of more than 3000 nM.

With `CCC/C=C/c1nc(NC2CCCC2)c2c(n1)SCC(=O)N2` [Compound B-600, 4-(cyclopentylamino)-2-[(1E)-pent-1-en-1-yl]-5H,6H,7H-pyrimido[4,5-b][1,4]thiazin-6-one], the IC50 is not below 3000 nM.

For `CON(C)C(=O)c1ccc2c(c1)C=CC(C)(C)N2` [Compound B-065], the IC50 was more than 3000 nM.

On to `c1ncc(-c2ncc(NC3COC3)c(NC3CCCC3)n2)cn1` [Compound F-82, N^4-cyclopentyl-N^5-(oxetan-3-yl)-2-pyrimidin-5-yl-pyrimidine-4,5-diamine], for which the IC50 was more than 625 nM.

The compound `CCCCCc1nc(NC2CCCC2)c2c(n1)OCCN2` [Compound B-711, N-cyclopentyl-2-pentyl-5H,6H,7H-pyrimido[4,5-b][1,4]oxazin-4-amine] yielded an IC50 of 41 nM.

As to `CCC(C)Nc1ccc(-c2ccc(C)cc2)nc1NC(C)(C)C` [Compound L-02, N^2-tert-butyl-6-(p-tolyl)-N^3-sec-butyl-pyridine-2,3-diamine], the half-maximal inhibitory concentration (IC50) was determined as 5 nM.

The compound `CCC/C=C/c1nc2c(c(NC3CCCC3)n1)NCCC2` [Compound B-388, N-cyclopentyl-2-[(E)-pent-1-enyl]-5,6,7,8-tetrahydropyrido [3,2-d]pyrimidin-4-amine] yielded an IC50 of 40 nM.

With `CCOC(=O)c1cc2c(c(C(=O)C(F)(F)F)c1)NC(C)(C)C=C2` [Compound B-101, Ethyl 2,2-dimethyl-8-(2,2,2-trifluoroacetyl)-1,2-dihydroquinoline-6-carboxylate], the IC50 was more than 3000 nM.

`CCCCCc1nc2c(c(NC3CCCC3)n1)NC(C)(C)CC2` [Compound B-917, N-cyclopentyl-6,6-dimethyl-2-pentyl-5H,6H,7H,8H-pyrido[3,2-d]pyrimidin-4-amine] registered an IC50 of more than 3000 nM.

In turn, `COc1ccc(-c2ccc(NC3COC3)c(NC3CCCC3)n2)cc1` [Compound H-87, N^2-cyclopentyl-6-(4-methoxyphenyl)-N^3-(oxetan-3-yl)pyridine-2,3-diamine] yielded an IC50 of 3 nM.

`CCCCC(=O)c1cc2c(c(-n3ccnc3)c1)NCCC2` [Compound B-006, 1-(8-imidazol-1-yl-1,2,3,4-tetrahydroquinolin-6-yl)pentan-1-one]: the concentration for half-maximal inhibition (IC50) was more than 3000 nM.

Compound `Cc1ccc(-c2nc3c(c(NC4CCCC4)n2)NCCC3)cc1` [Compound A-32, N-cyclopentyl-2-(p-tolyl)-5,6,7,8-tetrahydropyrido[3,2-d]pyrimidin-4-amine] registered an IC50 of 6 nM.

With `CCC(C)Nc1ccc(-c2ccncc2)nc1NC1CCCC1` (centres unmarked) [Compound H-76, N^2-cyclopentyl-6-(4-pyridyl)-N^3-sec-butyl-pyridine-2,3-diamine], the IC50 turned out to be 6 nM.

Take `CCCCC(=O)c1cc2c3c(c1)nc(C(F)(F)F)n3CCC2` [Compound B-099, 1-[2-(trifluoromethyl)-1,3-diazatricyclo[6.3.1.04,12]dodeca-2,4(12),5,7-tetraen-6-yl]pentan-1-one]: the IC50 is more than 3000 nM.

In the case of `CCCCCc1nc(NC2CCCC2)c2c(n1)SCCN2` [Compound B-601, N-cyclopentyl-2-pentyl-5H,6H,7H-pyrimido[4,5-b][1,4]thiazin-4-amine], the IC50 was found to be 3 nM.

The compound `CCC(C)Nc1ccc(-c2cncnc2)nc1NC1CCCC1` (centres unmarked) [Compound H-80, N^2-cyclopentyl-6-pyrimidin-5-yl-N^3-sec-butyl-pyridine-2,3-diamine] showed an IC50 of 7 nM.

Consider `Cc1ccc(-c2ccc(NC3COC3)c(NC3CCCC3)n2)cc1` [Compound H-81, N^2-cyclopentyl-N^3-(oxetan-3-yl)-6-(p-tolyl)pyridine-2,3-diamine], for which the IC50 stood at 5 nM.

`CC(C)(C)Nc1ccc(-c2ccncc2)nc1NC1CCCC1` [Compound L-04, N^3-tert-butyl-N^2-cyclopentyl-6-(4-pyridyl)pyridine-2,3-diamine] returned an IC50 of 5 nM.

Turning to `CCOC(=O)c1cc(N)c2c(c1)OCCN2` [Compound H-85], the IC50 was more than 1000 nM.

Take `CCCCC(=O)c1cc2c(c(NC3CCCC3)n1)NCCC2` [Compound B-647, 1-[8-(cyclopentylamino)-1,2,3,4-tetrahydro-1,7-naphthyridin-6-yl]pentan-1-one]: the IC50 is 8 nM. This counts as single-digit nanomolar.

As for `Cc1ccc(-c2ccc(NC(C)(C)C)c(NC3CCCC3)n2)cc1` [Compound A-98, N^3-tert-butyl-N^2-cyclopentyl-6-(p-tolyl)pyridine-2,3-diamine], the IC50 was 7 nM.

`CC1=Nc2cc(C#N)ccc2NC1(C)C` [Compound Q-912, 2,2,3-trimethyl-1H-quinoxaline-6-carbonitrile] registered an IC50 of more than 3000 nM.

`CCCCC(=O)c1cc2c(c(OC3CCCC3)c1)NCCC2` [Compound Q-980, 1-[8-(cyclopentoxy)-1,2,3,4-tetrahydroquinolin-6-yl]pentan-1-one]: the IC50 is more than 3000 nM.

For `CC(C)=Cc1nc(C)nc(NC2CCCC2)c1N` [Compound F-99, N^4-cyclopentyl-2-methyl-6-(2-methylprop-1-enyl)pyrimidine-4,5-diamine], the IC50 was more than 625 nM.

Compound `CCC(C)Nc1ccc(-c2ccc(OC)cc2)nc1NC1CCCC1` (centres unmarked) [Compound H-86, N^2-cyclopentyl-6-(4-methoxyphenyl)-N^3-sec-butyl-pyridine-2,3-diamine] gave an IC50 of 8 nM.

Compound `CCCCC(O)c1cc2c(c(NC(C)(C)C)n1)NCC(C(F)(F)F)C2` (centres unmarked) [Compound R-812, 1-[8-(tert-butylamino)-3-(trifluoromethyl)-1,2,3,4-tetrahydro-1,7-naphthyridin-6-yl]pentan-1-ol] displayed an IC50 of 40 nM.

Compound `CCCCC(=O)c1cc2c(c(N(S(=O)(=O)CC(C)C)S(=O)(=O)CC(C)C)c1)NCCC2` [Compound B-248, N-isobutylsulfonyl-2-methyl-N-(6-pentanoyl-1,2,3,4-tetrahydroquinolin-8-yl)propane-1-sulfonamide] displayed an IC50 of more than 3000 nM.

`CCCCC(=O)c1cc2c(c(NC3CCCC3)c1)OCCC2` [Compound B-035, 1-[8-(cyclopentylamino)-3,4-dihydro-2H-1-benzopyran-6-yl]pentan-1-one] yielded an IC50 of more than 3000 nM.

In the case of `CCCCC(OC)c1cc2c(c(Nc3ccccn3)c1)NCCC2` (centres unmarked) [Compound B-397, 6-(1-methoxypentyI)-N-(2-pyridyl)-1,2,3,4-tetrahydroquinolin-8-amine], it took 70 nM to reach half-maximal inhibition (IC50). This lies in the double-digit nanomolar range.

The same test, now with this note: unit cell prints uM.
`CNC(=O)c1nc(-c2ccc(C)cc2)nc2c1NC(C)(C)N2C1CCCC1` [Compound K-34, 9-cyclopentyl-N,8,8-trimethyl-2-(p-tolyI)-5,7-dihydro-4H-purine-6-carboxamide]: the IC50 was more than 10000 nM.

In turn, `CCCCC(O)c1nc2c(c(Nc3ccccn3)n1)NCCC2` (centres unmarked) [Compound G-63, 1-[4-(2-pyridylamino)-5,6,7,8-tetrahydropyrido[3,2-d]pyrimidin-2-yl]pentan-1-ol] gave an IC50 of more than 10000 nM.

The compound `CCCCC(=O)c1nc2c(c(Nc3ccccn3)n1)NCCC2` [Compound G-65, 1-[4-(2-pyridylamino)-5,6,7,8-tetrahydropyrido[3,2-d]pyrimidin-2-yl]pentan-1-one] showed an IC50 of more than 10000 nM.
